Reference: US12635718B2, “Flavanone derivatives and their use as sweetness enhancers” (Firmenich SA, priority 2019, dated 2026)

Legend:
panelists = experiment: Sweetener replacement test: panel choice between beverages (rebaudioside M, sucralose); format: in vivo, human; details: for Panelists (of 45) who selected the beverage with test compound: statistical equivalence
Text: In one test, 45 panelists were asked to select between a beverage sweetened with 450 ppm rebaudioside M and a beverage with 300 ppm rebaudioside M and 12 ppm test compound A01. Of the 45 panelists, 23 selected the former, and 22 selected the latter, which is a statistical equivalence. […] In another test, 45 panelists were asked to select between a beverage sweetened with 160 ppm sucralose and a beverage with 120 ppm sucralose and 12 ppm test compound A01. Of the 45 panelists, 22 selected the former, and 23 selected the latter, which is a statistical equivalence.

taste panelists = experiment: Taste panel rating of sweetness and licorice taste of 5% sucrose solutions; format: in vivo, human; details: scale 0 to 10, no enhancer 5.0
Protocol: A test compound, (2R,3R)-3-acetoxy-5,7,4′-trihydroxyflavanone (A01), was tested in comparison to naringenin for its sweetness enhancement of a 5% (w/w) aqueous solution of sucrose. Taste panelists were asked to taste the following 5% sucrose solutions in Henniez water and rate their sweetness on a scale from 0 to 10, and to rate the presence of any licorice taste in the sample on a scale from 0 to 10.
The test compound A01 was tested in comparison to other sweetness enhancers in a similar test to that set forth in Example 1. The comparative compounds are taxifolin 3-O-acetate (A02), and ampelopsin 3-O-acetate (A03).

[1] = +20 ppm in 5% sucrose solution (Table 2)

Row | SMILES | Reduction in concentration of sucralose permitted (panelists; 12 ppm test compound, 160 ppm to 120 ppm sucralose) [%] | Reduction in concentration of rebaudioside M permitted (panelists; 12 ppm test compound, 450 ppm to 300 ppm rebaudioside M) [%] | Panelists (of 45) who selected the beverage with test compound (panelists; 120 ppm sucralose + 12 ppm A01 versus 160 ppm sucralose) | Panelists (of 45) who selected the beverage with test compound (panelists; 300 ppm rebaudioside M + 12 ppm A01 versus 450 ppm rebaudioside M) | Sweetness (0-10) (taste panelists; +5 ppm in 5% (w/w) sucrose solution in Henniez water) | Sweetness (0-10) (taste panelists; +10 ppm in 5% (w/w) sucrose solution in Henniez water) | Sweetness (0-10) (taste panelists; [1]) | Sweetness (0-10) (taste panelists; +50 ppm in 5% (w/w) sucrose solution in Henniez water)
1 | CC(=O)O[C@H]1C(=O)c2c(O)cc(O)cc2O[C@@H]1c1ccc(O)cc1 [A01, (2R,3R)-3-acetoxy-5,7,4′-trihydroxyflavanone] | 25 | 33 | 23 | 22 | 7.0 | 8.0 | 8.8 | –
2 | CC(=O)OC1C(=O)c2c(O)cc(O)cc2OC1c1cc(O)c(O)c(O)c1 (stereo not drawn) [A03, ampelopsin 3-O-acetate, reference compound] | – | – | – | – | – | – | 5.1 | –
3 | O=C1C[C@@H](c2ccc(O)cc2)Oc2cc(O)cc(O)c21 [naringenin, reference compound] | – | – | – | – | – | – | – | 5.8
